Results: PMC6600163, “Inhibitory Effects of Diketopiperazines from Marine-Derived Streptomyces puniceus on the Isocitrate Lyase of Candida albicans” (Molecules, 2019)
In brackets after ≈: the same amount, converted by molar mass. Several values for one entry are separate records, joined by “and”; a condition that tells them apart may be missing. Identical values can stand only once. Entries after “also recorded” stand apart in the source; their conditions may differ. Like-named read-outs stand apart in the source and are kept apart here.

Legend:
[1] = target: T1, recombinant ICL (isocitrate lyase) from C. albicans ATCC10231 (Candida albicans, UniProt Q9P8Q7); assay: biochemical
T1 construct: made in house
T1 sequence (Q9P8Q7 whole entry): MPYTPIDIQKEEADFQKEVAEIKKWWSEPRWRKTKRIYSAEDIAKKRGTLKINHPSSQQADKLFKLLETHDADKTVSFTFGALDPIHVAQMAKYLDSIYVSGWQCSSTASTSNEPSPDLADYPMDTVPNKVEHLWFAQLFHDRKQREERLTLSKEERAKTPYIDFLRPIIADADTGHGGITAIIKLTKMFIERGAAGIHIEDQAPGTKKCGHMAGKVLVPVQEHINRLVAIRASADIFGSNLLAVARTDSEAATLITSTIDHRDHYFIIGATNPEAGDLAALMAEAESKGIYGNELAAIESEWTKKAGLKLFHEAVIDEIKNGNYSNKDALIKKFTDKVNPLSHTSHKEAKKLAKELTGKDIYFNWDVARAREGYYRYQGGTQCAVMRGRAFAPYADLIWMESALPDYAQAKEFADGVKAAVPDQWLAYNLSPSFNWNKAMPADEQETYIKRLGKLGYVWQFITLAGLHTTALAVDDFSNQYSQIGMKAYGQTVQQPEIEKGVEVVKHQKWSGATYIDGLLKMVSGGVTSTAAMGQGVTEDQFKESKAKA
Procedure: Isolated diketopiperazines were tested for ICL inhibitory activity according to methods reported previously. […] To determine the type of inhibition, kinetic analysis was performed with cyclo(L-Phe-L-Val) (inhibitor) and phenylhydrazine […]. The inhibitor constant (Ki) was calculated from the Dixon plot.
S. puniceus Act1085 was used as the diketopiperazine-producing strain. C. albicans SC5314 (ATCC MYA-2876) (wild-type), MRC10 (Δicl) (icl-deletion mutant), MRC11 (Δicl + ICL) (icl-deletion mutant), […], ATCC18804, and ATCC11006 were used for the growth assay. C. albicans ATCC10231 was used to obtain recombinant ICL. Prof. Michael C. Lorenz (University of Texas Health Science Center, Houston, TX, USA) kindly provided the ICL mutants.
Before evaluation of the ICL inhibitory activity of the test compounds, the recombinant ICL from C. albicans was prepared according to methods described in a previous report. The ICL inhibitory activity of the test compounds was determined according to a previously described method. The ICL inhibition assay is based on the principle that glyoxylate phenylhydrazone forms in the reaction reagent after treatment with isocitrate and phenylhydrazine. Each test compound was dissolved in DMSO. The reaction mixture consisted of 20 mM sodium phosphate buffer (pH 7.0), 1.27 mM threo-DL(+)isocitrate, 3.75 mM MgCl2, 4.1 mM phenylhydrazine, and 2.5 μg/mL purified ICL and was incubated with or without the test compounds at a concentration range of 1–128 μg/mL at 37 °C for 30 min. The increase in intensity of absorbance resulting from the formation of glyoxylate phenylhydrazone was observed using a spectrophotometer (Shimadzu) at a wavelength of 324 nm. The inhibitory activity of the test compound was calculated relative to that of the DMSO control (n = 3). The methods for determination of the IC50 value and ICL enzyme concentrations have been described in previous reports. A known ICL inhibitor, 3-nitropropionate, was used as a reference control.

C. albicans SC5314 = assay: In vitro growth assay (MIC) in YNB broth; format: cell-based, Candida albicans; settings: 28 °C
Source text: (§1) The glyoxylate cycle is necessary for virulence in C. albicans, which can survive in macrophages under abundant carbon sources, such as fatty acids or their breakdown products. When C. albicans is phagocytosed by a macrophage, the shift in metabolism from glycolysis to the glyoxylate cycle is activated so that the cells can utilize C2 carbon sources. It was expected that ICL inhibitors would reduce the nutrient uptake capacity and impede survival of the pathogen in the macrophage. To determine whether cyclo(L-Phe-L-Val) affects C2 substrate use, C. albicans strains SC5314, ATCC10231, ATCC10259, ATCC11006, and ATCC18804 were grown in YNB liquid broth containing either 2% glucose or 2% acetate as the sole carbon source.
(§2) C. albicans strains were cultured in YNB broth containing 2% glucose at 28 °C for 24 h, centrifuged at 15,000× g for 1 min, and washed twice with sterile distilled water. […] Additional DMSO was added to the medium at a final concentration of 0.5%. The fungal strain culture (20 μL) was poured into a 96-well assay plate at a final concentration of 1 × 10^4 cells/mL and total volume of 100 μL. The culture plates were incubated at 28 °C for 3 days. The positive control was amphotericin B, which is a known antifungal compound.

C. albicans ATCC10231 = assay: In vitro growth assay (MIC) in YNB broth; format: cell-based; settings: Candida albicans, ATCC10231, 72 h, 28 °C
Source text: as §1, §2

C. albicans ATCC10259 = assay: In vitro growth assay (MIC) in YNB broth; format: cell-based; settings: Candida albicans, ATCC10259, 72 h, 28 °C
Source text: as §1, §2

C. albicans ATCC11006 = assay: In vitro growth assay (MIC) in YNB broth; format: cell-based; settings: Candida albicans, ATCC11006, 72 h, 28 °C
Source text: as §1, §2

C. albicans ATCC18804 = assay: In vitro growth assay (MIC) in YNB broth; format: cell-based; settings: Candida albicans, ATCC18804, 72 h, 28 °C
Source text: as §1, §2

[2] = test system: C. albicans strains SC5314, ATCC10231, ATCC10259, ATCC11006, and ATCC18804; assay: In vitro growth assay, summary over five strains; format: cell-based, Candida albicans
Source text: as §1, §2

[3] = test system: C. albicans SC5314 (wild type) and icl-deletion mutants (MRC10 and MRC11); assay: Growth phenotype on YNB agar plates; format: cell-based, Candida albicans; settings: 2 days, 28 °C
Procedure: (§3) To determine whether the cell phenotype of the icl-deletion mutant is affected by the presence of cyclo(L-Phe-L-Val), a growth assay was conducted using C. albicans SC5314 (wild type) and two icl-deletion mutants (MRC10 and MRC11). After pre-culture, these strains were streaked onto YNB agar containing 2% glucose or 2% potassium acetate with or without 32 μg/mL cyclo(L-Phe-L-Val). All strains grew normally on both the plates with glucose and with glucose plus the compound. […] We further conducted semi-quantitative reverse-transcription (RT)-PCR to assess the effects of cyclo(L-Phe-L-Val) on ICL expression. No ICL-specific PCR product was detected in the cultures when SC5314 and MRC11 were grown in YNB liquid broth containing glucose. […] GPDH expression was detected in all treatments regardless of cyclo(L-Phe-L-Val) exposure.
(§4) Figure 3 Analysis of growth phenotypes and icl mRNA expression. […] Total RNA was prepared from these cells, and icl mRNA expression was analyzed by semi-quantitative RT-PCR. The GPDH housekeeping gene was evaluated as a loading control.
(§5) C. albicans SC5314 (wild type) and icl-deletion mutants (MRC10 and MRC11) were cultured in YNB broth containing 2% glucose at 28 °C on a rotary shaker for 24 h. […] RNA extraction, cDNA synthesis, and semi-quantitative RT-PCR were performed using previously described methods. […]

icl mRNA expression = assay: icl expression analysis by semi-quantitative RT-PCR; format: cell-based, Candida albicans; settings: SC5314 and MRC11, 2% potassium acetate plus 8, 16, 32 μg/mL compound, 4 h, 28 °C
Procedure: as §3, §4, §5

[4] = Candida albicans, SC5314, 72 h, 2% glucose, read-out: MIC
[5] = Candida albicans, SC5314, 72 h, 2% potassium acetate, read-out: MIC
[6] = Candida albicans, SC5314, 2% glucose, 72 h, read-out: MIC
[7] = ICL IC50, 37 °C, 30 min, pH 7.0, n = 3

O=C(O)CC[N+](=O)[O-] [3-Nitropropionate, reference compound]
ICL IC50 ([1]; 37 °C, 30 min, pH 7.0, n = 3): 1.90 ± 1.57 µg/mL
IC50 ([1]; 37 °C, 30 min, pH 7.0, n = 3, read-out: ICL IC50): 15.9 ± 2.13 µM
MIC (C. albicans SC5314; 2% glucose, 72 h): >256 µg/mL

C[C@@H]1[C@H](O)[C@@H](C)/C=C/C=C/C=C/C=C/C=C/C=C/C=C/[C@H](O[C@@H]2O[C@H](C)[C@@H](O)[C@H](N)[C@@H]2O)C[C@@H]2O[C@](O)(C[C@@H](O)C[C@@H](O)[C@H](O)CC[C@@H](O)C[C@@H](O)CC(=O)O[C@H]1C)C[C@H](O)[C@H]2C(=O)O [Amphotericin B, reference compound]
MIC (C. albicans SC5314; [4]): 1 µg/mL (≈ 1.08 µM)
MIC (C. albicans SC5314; [5]): 0.5 µg/mL (≈ 0.541 µM)
MIC (C. albicans ATCC10231; 2% glucose): 1 µg/mL (≈ 1.08 µM)
MIC (C. albicans ATCC10231; 2% potassium acetate): 0.5 µg/mL (≈ 0.541 µM)
MIC (C. albicans ATCC10259; 2% glucose): 1 µg/mL (≈ 1.08 µM)
MIC (C. albicans ATCC10259; 2% potassium acetate): 0.5 µg/mL (≈ 0.541 µM)
MIC (C. albicans ATCC11006; 2% glucose): 0.5 µg/mL (≈ 0.541 µM)
MIC (C. albicans ATCC11006; 2% potassium acetate): 0.5 µg/mL (≈ 0.541 µM)
MIC (C. albicans ATCC18804; 2% glucose): 1 µg/mL (≈ 1.08 µM)
MIC (C. albicans ATCC18804; 2% potassium acetate): 0.5 µg/mL (≈ 0.541 µM)

O=C1N[C@@H](Cc2ccccc2)C(=O)N2CCC[C@@H]12 [Cyclo(L-Phe-L-Pro), cyclo(L-Phe-L-Pro)]
MIC (C. albicans SC5314; [6]): > 256 µg/mL

CC(C)C1NC(=O)C(Cc2ccccc2)NC1=O [Cyclo(L-Phe-L-Val), cyclo(L-Phe-L-Val)]
Ki [1]: 64.9 µM
IC50 [1, 7]: 110 µM and 113 µM
type of inhibition ([1]; kinetic analysis): mixed inhibitor
MIC (C. albicans SC5314; [4]): > 256 µg/mL
MIC (C. albicans SC5314; [5]): 32 µg/mL (≈ 130 µM)
MIC (C. albicans ATCC10231; 2% glucose): > 256 µg/mL
MIC (C. albicans ATCC10231; 2% potassium acetate): 32 µg/mL (≈ 130 µM)
MIC (C. albicans ATCC10259; 2% glucose): > 256 µg/mL
MIC (C. albicans ATCC10259; 2% potassium acetate): 64 µg/mL (≈ 260 µM)
MIC (C. albicans ATCC11006; 2% glucose): > 256 µg/mL
MIC (C. albicans ATCC11006; 2% potassium acetate): 32 µg/mL (≈ 130 µM)
MIC (C. albicans ATCC18804; 2% glucose): > 256 µg/mL
MIC (C. albicans ATCC18804; 2% potassium acetate): 64 µg/mL (≈ 260 µM)
MIC ([2]; Candida albicans, acetate as sole carbon source, range over five strains, read-out: minimum inhibitory concentration): 32 to 64 µg/mL (≈ 130 to 260 µM)
inhibitory effect on C. albicans growth ([2]; glucose as sole carbon source): no inhibitory effect
growth on YNB agar ([3]; 2% glucose plus 32 μg/mL compound): grew normally
growth on YNB agar ([3]; 2% potassium acetate plus 32 μg/mL compound): none of the tested strains exhibited growth; also recorded: no growth
intensity of PCR band of icl product (icl transcript level) (icl mRNA expression): decreased; also recorded: declined

CC(C)C[C@@H]1NC(=O)[C@@H]2CCCN2C1=O [Cyclo(L-Pro-L-Leu), cyclo(L-Pro-L-Leu)]
IC50 [1, 7]: 534 µM
MIC (C. albicans SC5314; [4]): > 256 µg/mL

O=C1NC(Cc2ccc(O)cc2)C(=O)N2CCCC12 [Cyclo(L-Pro-L-Tyr), cyclo(L-Pro-L-Tyr)]
IC50 [1, 7]: > 984 µM
MIC (C. albicans SC5314; [6]): > 256 µg/mL

CC(C)[C@@H]1NC(=O)[C@@H]2CCCN2C1=O [Cyclo(L-Pro-L-Val), cyclo(L-Pro-L-Val)]
IC50 [1, 7]: 516 µM
MIC (C. albicans SC5314; [4]): > 256 µg/mL
